Data taken from paper PMC10527105, “Chirality Matters: Fine-Tuning of Novel Monoamine Reuptake Inhibitors Selectivity through Manipulation of Stereochemistry” (Biomolecules, 2023).
Several values for one entry are separate records, joined by “and”; a condition that tells them apart may be missing. Equal entries are not always repeated. Where two headings read alike, the source gives them in different places.

How the values were obtained:
Type in all cases: cell-based
[1] = biological target: T1, human dopamine transporter/SLC6A3 (DAT) (Homo sapiens, UniProt Q01959); assay: Cellular uptake experiments: [3H]-dopamine reuptake inhibition in transporter-expressing HEK293 cells; settings: for activity on DAT (reuptake inhibition), in words: at 50 µM; for IC50: cells stably expressing DAT, [3H]-dopamine 1 µM, screening cut-off 50 µM
T1 construct: expressed in transfected cells; host or cells: HEK293
T1 sequence (Q01959 whole entry): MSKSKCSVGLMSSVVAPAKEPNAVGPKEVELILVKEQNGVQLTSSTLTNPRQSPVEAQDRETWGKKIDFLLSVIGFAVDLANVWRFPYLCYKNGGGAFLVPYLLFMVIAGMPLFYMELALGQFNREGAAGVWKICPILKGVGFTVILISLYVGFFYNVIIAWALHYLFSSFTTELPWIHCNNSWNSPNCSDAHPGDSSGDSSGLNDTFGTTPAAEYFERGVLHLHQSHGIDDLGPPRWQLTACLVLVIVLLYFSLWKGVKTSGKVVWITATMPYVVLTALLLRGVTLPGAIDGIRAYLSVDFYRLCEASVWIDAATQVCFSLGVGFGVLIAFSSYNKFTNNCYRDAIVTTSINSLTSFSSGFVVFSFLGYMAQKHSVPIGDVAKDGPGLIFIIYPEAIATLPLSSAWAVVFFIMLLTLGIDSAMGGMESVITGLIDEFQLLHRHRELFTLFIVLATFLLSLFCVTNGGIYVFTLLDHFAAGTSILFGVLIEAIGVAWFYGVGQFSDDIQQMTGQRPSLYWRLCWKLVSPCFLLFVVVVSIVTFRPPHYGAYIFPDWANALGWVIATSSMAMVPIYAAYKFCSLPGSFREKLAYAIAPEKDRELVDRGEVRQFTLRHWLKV
Description: (§1) Cell culture. Human embryonic kidney (HEK) 293 or SK-N-MC (human neuroblastoma) cells were grown in minimum essential medium with Earle’s salts and L-glutamine, 10% heat-inactivated fetal bovine serum, and 50 mg/L gentamicin. Cells were grown in 100- or 60-mm diameter tissue culture dishes (polystyrene, Falcon) at 37 °C under an atmosphere of 5% CO2/95% air. The human dopamine transporter/SLC6A3 (DAT), noradrenaline transporter/SLC6A2 (NET), or human serotonin transporter/SLC6A4 (SERT) cDNA was stably expressed using methods as described previously.
(§2) Cellular uptake experiments. The transporter-expressing HEK293 cells were seeded in poly-D-lysine-coated 24-well plates (1 × 10^5 cells/well) and, one day later, each well was washed with 0.5 mL uptake buffer and incubated with 0.5 mL buffer containing various concentrations of the drugs. Uptake was started by the addition of [^3H]-dopamine, [^3H]-noradrenaline, or [^3H]-serotonin at a final concentration of 1 µM (specific activity 0.14 Ci/mmol) after 5 min of preincubation. After incubation for 2.5 min (SERT-cells: 5 min) at 25 °C, it was stopped by aspirating the uptake buffer and washing each well twice with 1 mL ice-cold buffer. Nonspecific uptake was determined in the presence of 10 µM mazindol (DAT- and NET-cells) or 10 µM clomipramine (SERT-cells). The radioactivity remaining in each well was determined by incubating with 0.4 mL 1% sodium dodecyl sulphate and transferring this solution into scintillation vials containing 3 mL of scintillation cocktail (Ultima Gold MV, Packard, Dovners Grove, IL, USA). The uptake buffer consisted of (mmol/L): 4 Tris–HCl; 6.25 4-(2-hydroxyethyl)-1-piperazineethanesulfonic acid (HEPES); 120 NaCl; 5 KCl; 1.2 CaCl2; 1.2 MgSO4; 5.6 D-glucose; 0.5 ascorbic acid; pH 7.1.

[2] = biological target: T2, noradrenaline transporter/SLC6A2 (NET) (Homo sapiens, UniProt P23975); assay: Cellular uptake experiments: [3H]-noradrenaline reuptake inhibition in transporter-expressing HEK293 cells; settings: for activity on NET (reuptake inhibition), in words: at 50 µM / tested concentration range
T2 construct: expressed in transfected cells; host or cells: HEK293
T2 sequence (P23975 whole entry): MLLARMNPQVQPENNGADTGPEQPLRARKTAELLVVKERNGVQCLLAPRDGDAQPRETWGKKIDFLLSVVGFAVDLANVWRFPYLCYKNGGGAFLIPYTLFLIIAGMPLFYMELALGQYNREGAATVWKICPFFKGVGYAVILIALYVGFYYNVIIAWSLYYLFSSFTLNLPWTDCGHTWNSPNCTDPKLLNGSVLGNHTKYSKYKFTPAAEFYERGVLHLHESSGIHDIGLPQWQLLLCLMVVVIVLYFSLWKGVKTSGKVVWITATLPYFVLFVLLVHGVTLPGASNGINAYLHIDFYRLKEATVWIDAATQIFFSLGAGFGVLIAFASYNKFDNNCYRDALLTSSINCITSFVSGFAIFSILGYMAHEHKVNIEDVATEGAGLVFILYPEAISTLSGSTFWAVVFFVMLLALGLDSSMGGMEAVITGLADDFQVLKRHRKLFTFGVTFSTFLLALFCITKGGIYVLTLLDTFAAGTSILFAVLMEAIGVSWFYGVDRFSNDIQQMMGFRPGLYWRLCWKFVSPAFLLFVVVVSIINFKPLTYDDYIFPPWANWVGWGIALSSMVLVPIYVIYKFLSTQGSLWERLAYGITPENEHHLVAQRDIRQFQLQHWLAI
Description: as §1, §2

[3] = biological target: T3, human serotonin transporter/SLC6A4 (SERT) (Homo sapiens, UniProt P31645); assay: Cellular uptake experiments: [3H]-serotonin reuptake inhibition in transporter-expressing HEK293 cells
T3 construct: expressed in transfected cells; host or cells: HEK293
T3 sequence (P31645 whole entry): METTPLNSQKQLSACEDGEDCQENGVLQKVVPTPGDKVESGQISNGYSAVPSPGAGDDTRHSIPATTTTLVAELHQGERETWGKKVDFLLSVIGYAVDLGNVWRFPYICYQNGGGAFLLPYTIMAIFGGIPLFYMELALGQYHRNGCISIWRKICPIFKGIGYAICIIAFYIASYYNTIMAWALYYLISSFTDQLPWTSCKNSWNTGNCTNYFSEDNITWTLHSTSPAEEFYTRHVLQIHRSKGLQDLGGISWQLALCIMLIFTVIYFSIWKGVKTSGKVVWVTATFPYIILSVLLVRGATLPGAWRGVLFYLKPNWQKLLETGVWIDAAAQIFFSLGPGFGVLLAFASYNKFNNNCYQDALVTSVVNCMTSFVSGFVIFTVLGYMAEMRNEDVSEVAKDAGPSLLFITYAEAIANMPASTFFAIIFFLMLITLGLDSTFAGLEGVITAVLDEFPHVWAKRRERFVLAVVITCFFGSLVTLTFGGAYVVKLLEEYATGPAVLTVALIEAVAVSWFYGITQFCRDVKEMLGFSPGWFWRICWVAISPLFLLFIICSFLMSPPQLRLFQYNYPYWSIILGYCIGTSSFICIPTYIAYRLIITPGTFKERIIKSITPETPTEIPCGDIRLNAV
Description: as §1, §2

[4] = read-out: Reuptake Inhibition (IC50 ± SE, µM) DAT
[5] = cells stably expressing NET, [3H]-noradrenaline 1 µM, screening cut-off 50 µM, read-out: Reuptake Inhibition (IC50 ± SE, µM) NET
[6] = at 50 µM / tested concentration range
[7] = cells stably expressing SERT; [3H]-serotonin 1 µM; screening cut-off 50 µM; read-out: Reuptake Inhibition (IC50 ± SE, µM) SERT
[8] = Reuptake Inhibition (IC50 ± SE, µM) DAT
[9] = read-out: Reuptake Inhibition (IC50 ± SE, µM) NET, cells stably expressing NET, [3H]-noradrenaline 1 µM, screening cut-off 50 µM
[10] = read-out: Reuptake Inhibition (IC50 ± SE, µM) SERT; cells stably expressing SERT; [3H]-serotonin 1 µM; screening cut-off 50 µM
[11] = Reuptake Inhibition (IC50 ± SE, µM) NET, cells stably expressing NET, [3H]-noradrenaline 1 µM, screening cut-off 50 µM
[12] = Reuptake Inhibition (IC50 ± SE, µM) SERT, cells stably expressing SERT; [3H]-serotonin 1 µM; screening cut-off 50 µM

[O-][S@+](Cc1cccs1)[C@@H](c1ccccc1)c1ccccc1Cl [Compound 7d, (R,S)-2-((((2-chlorophenyl)(phenyl)methyl)sulfinyl)methyl)thiophene]
activity on DAT (reuptake inhibition), in words [1]: did not achieve ≥50% of radioligand displacement
IC50 [1, 4]: > 50 µM
activity on NET (reuptake inhibition), in words [2]: did not achieve ≥50% of radioligand displacement
IC50 [2, 5]: > 50 µM
activity on SERT (reuptake inhibition), in words [3, 6]: did not achieve ≥50% of radioligand displacement
IC50 [3, 7]: > 50 µM

[O-][S@+](Cc1cccs1)[C@H](c1ccccc1)c1ccccc1F [Compound 5a, (R,R)-2-((((2-fluorophenyl)(phenyl)methyl)sulfinyl)methyl)thiophene]
IC50 [1, 4]: 32.8 ± 0.2 µM
IC50 [2, 5]: > 50 µM
IC50 [3, 7]: > 50 µM

[O-][S+](Cc1cccs1)C(c1ccccc1)c1ccccc1I (stereo not drawn) [Compound 6i, 2-((((2-iodophenyl)(phenyl)methyl)sulfinyl)methyl)thiophene]
IC50 [1, 8]: 20.3 ± 0.6 µM
IC50 [2, 9]: > 50 µM
IC50 [3, 10]: > 50 µM

[O-][S@+](Cc1cccs1)[C@@H](c1ccccc1)c1cccc(Cl)c1 [Compound 6e, (R,S)-2-((((3-chlorophenyl)(phenyl)methyl)sulfinyl)methyl)thiophene]
IC50 [1, 8]: 14.1 ± 0.5 µM
IC50 [2, 11]: > 50 µM
IC50 [3, 12]: > 50 µM

[O-][S+](Cc1cccs1)C(c1ccc(F)cc1)c1ccc(Cl)cc1 (stereo not drawn) [Compound 7u, 2-((((4-chlorophenyl)(4-fluorophenyl)methyl)sulfinyl)methyl)thiophene]
IC50 [1, 8]: 6.4 ± 0.4 µM
IC50 [2, 9]: > 50 µM
IC50 [3, 10]: > 50 µM

[O-][S+](Cc1cccs1)C(c1ccccc1)c1cccc(F)c1 (stereo not drawn) [Compound 5b, 2-((((3-fluorophenyl)(phenyl)methyl)sulfinyl)methyl)thiophene]
IC50 [1, 4]: 3.2 ± 0.4 µM
IC50 [2, 5]: > 50 µM
IC50 [3, 7]: > 50 µM

Cc1cccc([C@@H](c2ccccc2)[S@@+]([O-])Cc2cccs2)c1 [Compound 5m, (S,R)-2-(((phenyl(m-tolyl)methyl)sulfinyl)methyl)thiophene]
IC50 [1, 8]: 2.2 ± 0.4 µM
IC50 [2, 11]: > 50 µM
IC50 [3, 12]: > 50 µM

COc1ccccc1[C@H](c1ccccc1)[S@@+]([O-])Cc1cccs1 [Compound 6r, (S,S)-2-((((2-methoxyphenyl)(phenyl)methyl)sulfinyl)methyl)thiophene]
IC50 [1, 8]: > 50 µM
IC50 [2, 11]: > 50 µM
IC50 [3, 12]: > 50 µM

COc1cccc(C(c2ccccc2)[S+]([O-])Cc2cccs2)c1 (stereo not drawn) [Compound 8s, 2-((((3-methoxyphenyl)(phenyl)methyl)sulfinyl)methyl)thiophene]
IC50 [1, 8]: > 50 µM
IC50 [2, 9]: > 50 µM
IC50 [3, 12]: > 50 µM

[O-][S@@+](Cc1cccs1)[C@H](c1ccccc1)c1ccc(I)cc1 [Compound 5k, (S,R)-2-((((4-iodophenyl)(phenyl)methyl)sulfinyl)methyl)thiophene]
IC50 [1, 8]: 5.1 ± 0.6 µM
IC50 [2, 11]: > 50 µM
IC50 [3, 12]: > 50 µM

[O-][S+](Cc1cccs1)C(c1ccccc1)c1ccc(C(F)(F)F)cc1 (stereo not drawn) [Compound 8q, 2-(((phenyl(4-(trifluoromethyl)phenyl)methyl)sulfinyl)methyl)thiophene]
IC50 [1, 8]: 21 ± 2 µM
IC50 [2, 9]: > 50 µM
IC50 [3, 12]: 4.7 ± 0.5 µM

[O-][S@+](Cc1cccs1)[C@@H](c1ccccc1)c1cccc(Br)c1 [Compound 6h, (R,S)-2-((((3-bromophenyl)(phenyl)methyl)sulfinyl)methyl)thiophene]
IC50 [1, 8]: 15 ± 1 µM
IC50 [2]: > 50 µM
IC50 [3, 12]: > 50 µM

Cc1cccc([C@H](c2ccccc2)[S@+]([O-])Cc2cccs2)c1 [Compound 6m, (R,S)-2-(((phenyl(m-tolyl)methyl)sulfinyl)methyl)thiophene]
IC50 [1, 8]: > 50 µM
IC50 [2, 11]: > 50 µM
IC50 [3, 12]: > 50 µM

[O-][S@+](Cc1cccs1)[C@H](c1ccccc1)c1ccc(I)cc1 [Compound 8k, (R,R)-2-((((4-iodophenyl)(phenyl)methyl)sulfinyl)methyl)thiophene]
IC50 [1, 8]: 2.6 ± 0.1 µM
IC50 [2, 11]: > 50 µM
IC50 [3, 12]: > 50 µM

COc1cccc(C(c2ccccc2)[S+]([O-])Cc2cccs2)c1 (stereo not drawn) [Compound 6s, 2-((((3-methoxyphenyl)(phenyl)methyl)sulfinyl)methyl)thiophene]
IC50 [1, 8]: 5.41 ± 0.99 µM
IC50 [2, 9]: > 50 µM
IC50 [3, 12]: 35 ± 3 µM

[O-][S+](Cc1cccs1)C(c1ccccc1)c1ccc(C(F)(F)F)cc1 (stereo not drawn) [Compound 7q, 2-(((phenyl(4-(trifluoromethyl)phenyl)methyl)sulfinyl)methyl)thiophene]
IC50 [1, 8]: 24 ± 1 µM
IC50 [2, 9]: > 50 µM
IC50 [3, 12]: > 50 µM

[O-][S+](Cc1cccs1)C(c1ccc(F)cc1)c1ccc(Cl)cc1 (stereo not drawn) [Compound 5u, 2-((((4-chlorophenyl)(4-fluorophenyl)methyl)sulfinyl)methyl)thiophene]
IC50 [1, 8]: 4.5 ± 1.8 µM
IC50 [2, 11]: > 50 µM
IC50 [3, 12]: > 50 µM

Cc1ccc([C@H](c2ccccc2)[S@@+]([O-])Cc2cccs2)cc1 [Compound 7n, (S,S)-2-(((phenyl(p-tolyl)methyl)sulfinyl)methyl)thiophene]
IC50 [1, 4]: 1.63 ± 0.1 µM
IC50 [2, 11]: > 50 µM
IC50 [3, 7]: > 50 µM

[O-][S+](Cc1cccs1)C(c1ccccc1)c1cccc(I)c1 (stereo not drawn) [Compound 7j, 2-((((3-iodophenyl)(phenyl)methyl)sulfinyl)methyl)thiophene]
IC50 [1, 8]: 1.46 ± 0.06 µM
IC50 [2, 9]: > 50 µM
IC50 [3, 10]: > 50 µM

[O-][S@+](Cc1cccs1)[C@H](c1ccccc1)c1cccc(Cl)c1 [Compound 8e, (R,R)-2-((((3-chlorophenyl)(phenyl)methyl)sulfinyl)methyl)thiophene]
IC50 [1, 8]: 0.83 ± 0.16 µM
IC50 [2, 11]: 48 ± 6 µM
IC50 [3, 12]: 19 ± 1 µM

[O-][S+](Cc1cccs1)C(c1ccccc1)c1ccccc1C(F)(F)F (stereo not drawn) [Compound 8o, 2-(((phenyl(2-(trifluoromethyl)phenyl)methyl)sulfinyl)methyl)thiophene]
IC50 [1, 8]: 8.9 ± 0.7 µM
IC50 [2, 11]: > 50 µM
IC50 [3, 10]: > 50 µM

Cc1ccc([C@@H](c2ccccc2)[S@+]([O-])Cc2cccs2)cc1 [Compound 8n, (R,R)-2-(((phenyl(p-tolyl)methyl)sulfinyl)methyl)thiophene]
IC50 [1, 4]: 4 µM and 4.01 µM
IC50 [2, 11]: > 50 µM
IC50 [3, 7]: 25 ± 4 µM

[O-][S+](Cc1cccs1)C(c1ccccc1)c1ccc(F)cc1 (stereo not drawn) [Compound 8c, 2-((((4-fluorophenyl)(phenyl)methyl)sulfinyl)methyl)thiophene]
IC50 [1, 4]: 5.2 ± 0.1 µM
IC50 [2, 5]: > 50 µM
IC50 [3, 7]: 24 ± 6 µM

[O-][S@@+](Cc1cccs1)[C@@H](c1ccccc1)c1ccccc1Cl [Compound 6d, (S,S)-2-((((2-chlorophenyl)(phenyl)methyl)sulfinyl)methyl)thiophene]
IC50 [1, 4]: 14.4 ± 2.4 µM
IC50 [2, 5]: > 50 µM
IC50 [3, 7]: > 50 µM

[O-][S+](Cc1cccs1)C(c1ccccc1)c1ccccc1Br (stereo not drawn) [Compound 7g, 2-((((2-bromophenyl)(phenyl)methyl)sulfinyl)methyl)thiophene]
IC50 [1, 8]: > 50 µM
activity on DAT (reuptake inhibition), in words [1]: no effect
activity on NET (reuptake inhibition), in words [2]: no effect
IC50 [2, 9]: > 50 µM
activity on SERT (reuptake inhibition), in words [3, 6]: no effect
IC50 [3, 10]: > 50 µM

[O-][S+](Cc1cccs1)C(c1ccccc1)c1ccc(C(F)(F)F)cc1 (stereo not drawn) [Compound 6q, 2-(((phenyl(4-(trifluoromethyl)phenyl)methyl)sulfinyl)methyl)thiophene]
IC50 [1, 8]: 40 ± 9 µM
IC50 [2, 9]: > 50 µM
IC50 [3, 12]: > 50 µM
